The numbers were not newly measured in patent US20120195848A1, “STRONTIUM-CONTAINING BIOACTIVE BONE CEMENT” (The University of Hong Kong, priority 2011, published 2012), which cites them from elsewhere.

Like-named read-outs stand apart in the source and are kept apart here.

Take `O=S(=O)([O-])[O-].[Ba+2]` [BaSO4, reference compound]: the dissolution rate (20° C.) is 0.0002448 g/100 mL.

In the case of `O=C([O-])[O-].[Sr+2]` [SrCO3, strontium carbonate], where the note is “18° C.”, the dissolution rate was 0.0011 g/100 ml.

Consider `O=S(=O)([O-])[O-].[Sr+2]` [SrSO4, strontium sulfate], for which, under “25° C.”, the dissolution rate is 0.0135 g/100 mL.
